One experiment deals with T1, BCL6^5-360 - SIAH1^SBD (Homo sapiens, UniProt P41182).
T1 construct: 200 nM BodipyFL-labeled BCL6^5-360 variants; His6 (N); Spy (C); made in house; host or cells: Trichoplusia ni High Five insect cells, baculovirus
In words: BCL6-SIAH1 TR-FRET. To be noted: in vitro, increasing compound concentration. The format is biochemical. The protocol:
After dispensing the assay mixture (15 μL volume), increasing concentrations of compounds were dispensed in a 384-well microplate (Corning, 4514) using a D300e Digital Dispenser (HP) normalized to 1% DMSO. After excitation of terbium fluorescence at 337 nm, emission at 490 nm (terbium) and 520 nm (BodipyFL) were recorded with a 70 us delay over 600 μs to reduce background fluorescence, and the reaction was followed over 60 cycles of each data point using a PHERAstar FS microplate reader (BMG Labtech). The TR-FRET signal of each data point was extracted by calculating the 520/490 nm ratio. The half-maximal effective concentration (EC50) values were estimated using dose-response analysis standard four parameter log-logistic curves, fitted to the experimental data using […] package. […] After dispensing the assay mixture, increasing concentration of BodipyFL-BCL6^5-360 was added to the SIAH1 mixture in a […] (7.5 μL each, total 15 μL assay volume). The 520/490 nm ratios were measured in as described above and plotted to calculate the KD^APP values using dose-response analysis standard four parameter log-logistic curves using […] package.

The subject of the next experiment is SuDHL4Cas9 cells. In words: Whole proteome quantification using tandem mass tag mass spectrometry. The format is cell-based, human. To be noted: SuDHL4 cells, 1 μM compound, 4 hours. The protocol: 10×10^6 SuDHL4Cas9 cells were treated with DMSO, 1 μM BI-3802 or 1 μM BI-3812 for 1 h or 4 h in triplicates and cells were harvested by centrifugation. Samples were processed, measured and analyzed as previously described (Donovan, K. A. et al. Thalidomide promotes degradation of SALL4, a transcription factor implicated in Duane Radial Ray syndrome. Ehfe 7, doi:10.7554/eLife.38430 (2018)). Data are available in the PRIDE repository (PXD016185).

Experiment [1] has as its target T2, eGFPBCL6 stability reporter (Homo sapiens, UniProt P41182).
T2 construct: the full length BCL6 (BCL6^FL) was fused in-frame with eGFP; expressed in transfected cells; host or cells: HEK293TCas9 cells, lentiviral transduction (Artichoke vector)
In words: Degradation of BCL6 reporter constructs in HEK293T cells (flow cytometry). The format is cell-based. The note with it: for effect on BI-3802-induced degradation of eGFPBCL6^FL: HEK293TCas9 cells, 0.5 μM MLN7243, 5 μM MLN4924 or 10 μM MG132 for 3 hours plus 1 μM BI-3802 for 1 hour. As for the experimental part:
Lentivirus was packaged in HEK293T cells using TransIT (Mirus) and subsequently used for spin infection.
HEK293TCas9 cells expressing indicated constructs in “Artichoke” or “Cilantro2” stability reporter vectors (PGK or SFFV Target-eGFP-IRES-mCherry, puromycin resistance) were plated in 96 well plates and treated for indicated times. BCL6-eGFP and mCherry expression were quantified by flow cytometry (CytoFLEX, Beckman or LSR Fortessa flow cytometer BD Biosciences). All degradation assays were done in at least triplicates. Geometric means of eGFP and mCherry fluorescent signals for live and mCherry positive cells were exported using flow cytometry analysis software (FlowJo, BD). Ratios of eGFP to mCherry were normalized to the average of DMSO-treated controls.
For orientation: Flow cytometry measures light scatter and fluorescence of single cells or particles in a stream.

The next experiment has as its target T3, BCL6^5-129 (Homo sapiens, UniProt P41182).
T3 construct: mixing 100 nM biotinylated BCL6^5-129, 100 nM N-terminal FITC-labeled BCoR peptide; made in house; host or cells: Trichoplusia ni High Five insect cells, baculovirus
The experiment in a line: BCL6-BCoR TR-FRET (compound binding assay). To be noted: 0.1 μM FITCBCoR polypeptide, 0.1 μM BiotinBCL6^5-129. The protocol:
Competitive titration of BI-3802 or BI-3812 were carried out by mixing 100 nM biotinylated BCL6^5-129, 100 nM N-terminal FITC-labeled BCoR peptide (sequence: […]), and 2 nM terbium-coupled streptavidin in the same assay buffer. After dispensing the assay mixture (15 μL volume), increasing concentrations of compounds were dispensed in a 384-well microplate (Corning, 4514) using a D300e Digital Dispenser (HP) normalized to 1% DMSO. The 520/490 nm ratios were measured as described above and plotted to calculate the KD^APP values using dose-response analysis standard four parameter log-logistic curves using the dr4pl R package.
(In general: In TR-FRET formats the signal depends on donor and acceptor labels being close together.)

The target in experiment [2] is T4, BCL6-eGFP fusion construct (Homo sapiens, UniProt P41182).
T4 construct: expressed in transfected cells; host or cells: HEK293TCas9 cells, lentiviral transduction (Cilantro2 vector)
The experiment in a line: Live cell imaging of BCL6-eGFP foci in HEK293T cells. The experiment is classed as cell-based. The note with it: eGFPBCL6^1-250, 10 μM BI-3812 added 75 minutes after 1 μM BI-3802. As for the experimental part:
1×10^3 HEK293T cells per cm^2 were seeded in a μ-Slide 8 Well chamber (ibidi) and cultured for 18-24 h under standard growth conditions. Cell culture medium was exchanged to CO2 independent media (Gibco) and imaged with the DeltaVision Ultra High-Resolution Microscope (GE Healthcare, 100×lens, oil refraction index=1.520). The following acquisition parameters were used: Image size […], binning 1×1, GFP exposure time 0.08 sec. and the Neutral Density (% T) filter 32%. To capture foci within all cell volume, around 26μm per cell was imaged every 0.4-0.5 μm. Images were deconvolved (10 cycles, conservative conditions) and projected using maximal intensity by softWoRx® 7.0.0. Images for movies were taken every 10 minutes and combined to a movie by QuickTime.

Residues, ends and D or L forms follow the SMILES beside them. *: point of attachment. Cbz = O=C(OCc1ccccc1)*

As to `CNC(=O)COc1cc2cc(Nc3nc(N4CCC(C(=O)N(C)C)CC4)ncc3Cl)cc(OC)c2n(C)c1=O` [BI-3812, 1-(5-chloro-4-((8-methoxy-1-methyl-3-(2-(methylamino)-2-oxoethoxy)-2-oxo-1,2-dihydroquinolin-6-yl)amino)pyrimidin-2-yl)-N,N-dimethylpiperidine-4-carboxamide], the “effect on the BCL6-SIAH1 interaction (TR-FRET)” value on BCL6^5-360 - SIAH1^SBD is given as “did not influence the BCL6-SIAH1 interaction”. The “change in polypeptide abundance (whole proteome)” value with SuDHL4Cas9 cells is on record as “did not alter the abundance of any polypeptide”. For the same molecule, in experiment [1] (HEK293T cells expressing eGFPBCL6^1-275, simultaneous BI-3802 and excess BI-3812, 24 hours), the “block of BI-3802-induced BCL6 degradation” value is reported as “efficiently blocked BI-3802-induced BCL6 degradation”. Further, the “degradation of full-length BCL6 reporter (eGFPBCL6^FL)” value in experiment [1] (HEK293T cells, 1 μM, 1 hour) was “did not alter stability of the reporter”. In addition, the “affinity of compound to BCL6 (BCoR peptide competition)” value at BCL6^5-129 was “comparable affinity”. The “reversal of BI-3802-induced foci” value in experiment [2] was “fully reversible”.

For `CC(C)C[C@@H](C=O)NC(=O)[C@H](CC(C)C)NC(=O)[C@H](CC(C)C)NC(=O)OCc1ccccc1` [MG132] (Cbz-Leu-Leu-Leu-aldehyde), the “effect on BI-3802-induced degradation of eGFPBCL6^FL” value (“effect … of eGFPBCL6^FL” for short) in experiment [1] is recorded as “attenuated”.

For `NS(=O)(=O)OC[C@@H]1C[C@@H](n2ccc3c(N[C@H]4CCc5ccccc54)ncnc32)C[C@@H]1O` [MLN4924], the “effect … of eGFPBCL6^FL” value in experiment [1] was “not by inhibition of the neddylation pathway with MLN4924”.

Turning to `NS(=O)(=O)OC[C@H]1C[C@@H](Nc2ccnc3cc(-c4cccc(SC(F)(F)F)c4)nn23)[C@H](O)[C@@H]1O` [MLN7243], in experiment [1], the “effect … of eGFPBCL6^FL” value is listed as “attenuated”.
